# Values quoted from earlier work, collected in patent US20050222211A1, “S(-)rabeprazole compositions and methods” (Sepracor Inc., priority 1998, published 2005).
# Key:
# CYP 2C19 = CYP 2C19 (Homo sapiens, UniProt P33261); conditions: compared with omeprazole
# CYP 1A1 mRNA = conditions: compared with pantoprazole
# gastric acid secretion = conditions: humans
# [1] = humans; depending on dose
# CYP 3A = conditions: compared with omeprazole
# Sequence of CYP 2C19 (P33261 whole entry, species assumed): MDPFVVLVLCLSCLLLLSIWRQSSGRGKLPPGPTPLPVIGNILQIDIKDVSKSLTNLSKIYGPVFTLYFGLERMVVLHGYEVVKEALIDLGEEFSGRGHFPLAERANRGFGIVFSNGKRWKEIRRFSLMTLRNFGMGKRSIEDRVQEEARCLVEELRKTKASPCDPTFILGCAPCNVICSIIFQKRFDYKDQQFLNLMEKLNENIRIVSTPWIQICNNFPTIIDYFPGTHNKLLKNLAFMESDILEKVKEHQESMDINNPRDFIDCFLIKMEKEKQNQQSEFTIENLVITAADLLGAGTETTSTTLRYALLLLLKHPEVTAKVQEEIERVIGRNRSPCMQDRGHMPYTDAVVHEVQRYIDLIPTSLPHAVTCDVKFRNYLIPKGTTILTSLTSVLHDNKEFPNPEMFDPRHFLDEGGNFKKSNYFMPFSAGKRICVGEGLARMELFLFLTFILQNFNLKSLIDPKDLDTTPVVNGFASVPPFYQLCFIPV
smiles,measurement,setting,value
COCCCOc1ccnc(C[S+]([O-])c2nc3ccccc3[nH]2)c1C (racemic) [racemic rabeprazole],inhibition of CYP 2C19,CYP 2C19,less inhibitory of CYP 2C19 than is omeprazole
same,induction of CYP 1A1 mRNA,CYP 1A1 mRNA,more potent inducer of CYP 1A1 mRNA than is pantoprazole
same,duration of the acid inhibitory effect,gastric acid secretion,about 24 hours
same,serum half-life,[1],0.833 to 1.5 h
same,effects on hepatic drug metabolizing enzyme systems such as CYP 3A,CYP 3A,comparable to omeprazole
